Test results from patent US10463658B2, “Method of inhibiting FLT3 kinase” (AROG Pharmaceuticals, LLC, priority 2013, dated 2019).

What was measured:
FLT3 D835V = molecular target: T1, FLT3 D835V (Homo sapiens, UniProt P36888, D835V); assay: KINOMEscan KdElect competitive binding assay, FLT3 D835V; conditions: tosylate salt
T1 construct: host or cells: E. coli BL21-derived host (T7 phage) or HEK-293
T1 sequence (P36888 610-943 D835V limits assumed): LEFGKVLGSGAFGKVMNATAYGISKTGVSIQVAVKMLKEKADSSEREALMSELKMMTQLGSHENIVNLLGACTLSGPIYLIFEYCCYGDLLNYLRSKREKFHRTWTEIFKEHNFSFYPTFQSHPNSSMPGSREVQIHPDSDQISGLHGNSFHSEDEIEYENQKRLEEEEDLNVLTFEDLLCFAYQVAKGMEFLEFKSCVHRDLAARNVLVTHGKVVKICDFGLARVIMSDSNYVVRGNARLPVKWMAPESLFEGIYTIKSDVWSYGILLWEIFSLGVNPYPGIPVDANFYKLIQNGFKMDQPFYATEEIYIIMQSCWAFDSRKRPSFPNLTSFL
From the text: Competitive binding assay.
The lysates were then centrifuged and filtered.

FLT3 TKD mutation D835Y = molecular target: T2, FLT3 TKD mutation D835Y (Homo sapiens, UniProt P36888, D835Y); assay: Direct enzyme phosphorylation assay (Millipore Kinase IC50 Profiler), FLT3 D835Y; type: biochemical; conditions: tosylate salt; n=2; read-out: IC50 against the FLT3 TKD mutation D835Y
T2 construct: purchased Millipore
T2 sequence (P36888 27-993 D835Y): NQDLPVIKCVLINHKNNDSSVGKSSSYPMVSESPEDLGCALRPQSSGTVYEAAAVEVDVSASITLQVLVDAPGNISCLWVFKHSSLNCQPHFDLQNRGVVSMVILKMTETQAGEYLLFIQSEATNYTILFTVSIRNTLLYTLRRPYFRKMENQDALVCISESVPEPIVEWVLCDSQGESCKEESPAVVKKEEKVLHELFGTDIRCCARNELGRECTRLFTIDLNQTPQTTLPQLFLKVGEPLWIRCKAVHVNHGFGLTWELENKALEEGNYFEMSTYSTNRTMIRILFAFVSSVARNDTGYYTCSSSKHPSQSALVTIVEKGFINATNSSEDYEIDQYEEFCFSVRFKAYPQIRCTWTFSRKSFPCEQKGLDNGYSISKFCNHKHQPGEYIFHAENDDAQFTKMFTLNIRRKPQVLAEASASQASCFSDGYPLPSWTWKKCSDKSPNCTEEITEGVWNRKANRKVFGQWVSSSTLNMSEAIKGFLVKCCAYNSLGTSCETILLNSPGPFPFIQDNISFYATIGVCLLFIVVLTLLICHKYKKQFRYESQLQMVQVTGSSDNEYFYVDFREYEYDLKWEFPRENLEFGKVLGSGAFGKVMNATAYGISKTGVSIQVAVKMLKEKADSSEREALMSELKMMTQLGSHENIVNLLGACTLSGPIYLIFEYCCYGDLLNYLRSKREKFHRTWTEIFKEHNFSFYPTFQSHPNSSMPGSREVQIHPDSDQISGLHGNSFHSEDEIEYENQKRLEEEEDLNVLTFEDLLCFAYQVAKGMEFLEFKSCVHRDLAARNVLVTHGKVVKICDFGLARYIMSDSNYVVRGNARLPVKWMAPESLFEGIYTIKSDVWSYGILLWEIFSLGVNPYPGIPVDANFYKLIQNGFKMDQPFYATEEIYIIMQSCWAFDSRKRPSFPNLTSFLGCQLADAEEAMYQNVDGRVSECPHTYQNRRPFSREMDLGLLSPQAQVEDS
Experimental: Direct enzyme phosphorylation assay. The Millipore Kinase IC50 Profiler assay was used to screen the present invention against a panel of normal FLT3 and mutated FLT3 kinases. For assays of both kinases, the FLT3 enzyme was incubated with 8 mM of 3-(N-morpholino)propanesulfonic acid (MOPS) at a pH of 7.0, 0.2 mM Ethylenediaminetetraacetic acid (EDTA), 50 uM, a synthetic Abl peptide substrate […] (SEQ ID NO: 1), 10 mM MgAcetate and [γ-^33P-ATP]. The reaction was initiated by the addition of MgATp mix. The reaction mixture was incubated for 40 minutes at room temperature and halted by the addition of 3% phosphoric acid solution. 10 uL of the reaction solution was spotted on P30 filtermat and washed three times in 75 mM phosphoric acid for 5 minutes and then once in methanol prior to drying and scintillation counting. The scintillation values for each replicate, including positive and negative controls, were analyzed using XLFit version 5.1 to determine the IC50 values for the present invention against normal and mutated FLT3.

[1] = test system: Molm 13-RES-luc cells that expressed FLT3-ITD/D835Y; assay: MTT assay in tandutinib-resistant Molm 13-RES-luc cells; type: cell-based; conditions: Homo sapiens, tandutinib resistant Molm 13 cells, mean of 3 studies with 6 replicates each (n=18), read-out: IC50 pFLT3 (text: cell viability, MTT assay)

Kd (FLT3 D835V): 0.015 nM
IC50 (FLT3 TKD mutation D835Y): 3 nM
IC50 [1]: 3.3 nM
SMILES: COCCOc1ccc2c(c1)ncn2-c1ccc2cccc(N3CCC(N)CC3)c2n1 [CP-673,451]
